“Also recorded” adds a separate entry of the source.
What was measured:
Assay type in all cases: physicochemical
[1] = Gravimetric Vapor Sorption (GVS); details: 25° C.
Description: Approximately 10-20 mg of sample was placed into a mesh vapor sorption balance pan and loaded into an IGASorp Moisture Sorption Analyzer balance by Hiden Analytical. The sample was subjected to a ramping profile from 40-90% relative humidity (RH) at 10% increments, maintaining the sample at each step until a stable weight had been achieved (98% step completion, minimum step length 30 minutes, maximum step length 60 minutes) at 25° C. After completion of the sorption cycle, the sample was dried using the same procedure to 0% RH, and finally taken back to the starting point of 40% RH. Three cycles were performed. The weight change during the sorption/desorption cycles were plotted, allowing for the hygroscopic nature of the sample to be determined. The above technique was used to generate the images in FIG. 40 and FIG. 41.

[2] = Dynamic Vapor Sorption (DVS)
Description: Approximately, 10-20 mg of sample was placed into a mesh vapor sorption balance pan and loaded into a DVS Intrinsic dynamic vapor sorption balance by Surface Measurement Systems. The sample was subjected to a ramping profile from 40-90% relative humidity (RH) at 10% increments, maintaining the sample at each step until a stable weight had been achieved (dm/dt 0.004%, minimum step length 30 minutes, maximum step length 500 minutes) at 25° C. After completion of the sorption cycle, the sample was dried using the same procedure to 0% RH and then a second sorption cycle back to 40% RH. Two cycles were performed. The weight change during the sorption/desorption cycles were plotted, allowing for the hygroscopic nature of the sample to be determined. XRPD analysis was then carried out on any solid retained. The above technique was used to generate the images in FIG. 5, FIG. 6, FIG. 47 and FIG. 48.

[3] = Competitive slurry experiments
Description: Competitive slurry experiments were carried out using ca. 10 mg of Pattern 1, Pattern 2/6 mixture and Pattern 3 were weighed out and added to a 1.5 mL glass vial. Samples were prepared using 100 μL aliquots of solvent until a mobile slurry was formed. Samples were stirred at ambient temperature for 48 hours. A second set of samples were stirred at 60° C. for 48 hours. All samples were collected, and the solids were isolated and analyzed by XRPD. The above technique was used to generate the images in FIG. 50, FIG. 51, and FIG. 55 through FIG. 59.

[4] = Thermodynamic solubility in water at pH 4.2
Description: Thermodynamic solubility was carried out for Pattern 1, Pattern 2/6 mixture, Pattern 3, amorphous di-HCl salts and Pattern 7 in water at pH 4.2. All samples were prepared at 30 mg/mL. Initial observations were made. The samples were agitated at ambient temperature for ca. 24 hours. The samples were collected and observations made. Observed solids were isolated via centrifugation. The mother liquor from the filtered sample was analyzed by HPLC. The pH 4.3 solution was prepared by diluting glacial acetic acid (11.6 mL) to 100 mL in deionized water, then adding sodium acetate (1.07 g) and acetic acid solution (5.9 mL) preparing up to 500 mL with deionized water; then the pH was adjusted to 4.2. The above technique was used to generate the images in FIG. 60.

Change in Mass (%)-ref Desorption ([1]; Cycle 1, desorption, target RH 0%): 0.180%
Change in Mass (%)-ref Desorption ([1]; Cycle 1, desorption, target RH 10%): 2.320%
Change in Mass (%)-ref Desorption ([1]; Cycle 1, desorption, target RH 20%): 2.820%
Change in Mass (%)-ref Desorption ([1]; Cycle 1, desorption, target RH 30%): 3.110%
Change in Mass (%)-ref Desorption ([1]; Cycle 1, desorption, target RH 40%): 3.340%
Change in Mass (%)-ref Desorption ([1]; Cycle 1, desorption, target RH 50%): 3.580%
Change in Mass (%)-ref Desorption ([1]; Cycle 1, desorption, target RH 60%): 3.730%
Change in Mass (%)-ref Desorption ([1]; Cycle 1, desorption, target RH 70%): 3.820%
Change in Mass (%)-ref Desorption ([1]; Cycle 1, desorption, target RH 80%): 3.970%
Change in Mass (%)-ref Desorption ([1]; Cycle 1, desorption, target RH 90%): 4.160%
Change in Mass (%)-ref Sorption ([1]; Cycle 1, sorption, target RH 40%): 3.420%
Change in Mass (%)-ref Sorption ([1]; Cycle 1, sorption, target RH 50%): 3.560%
Change in Mass (%)-ref Sorption ([1]; Cycle 1, sorption, target RH 60%): 3.720%
Change in Mass (%)-ref Sorption ([1]; Cycle 1, sorption, target RH 70%): 3.800%
Change in Mass (%)-ref Sorption ([1]; Cycle 1, sorption, target RH 80%): 3.920%
Change in Mass (%)-ref Sorption ([1]; Cycle 1, sorption, target RH 90%): 4.160%
Change in Mass (%)-ref Desorption ([1]; Cycle 2, desorption, target RH 0%): 0.000%
Change in Mass (%)-ref Desorption ([1]; Cycle 2, desorption, target RH 10%): 2.240%
Change in Mass (%)-ref Desorption ([1]; Cycle 2, desorption, target RH 20%): 2.680%
Change in Mass (%)-ref Desorption ([1]; Cycle 2, desorption, target RH 30%): 3.020%
Change in Mass (%)-ref Desorption ([1]; Cycle 2, desorption, target RH 40%): 3.260%
Change in Mass (%)-ref Desorption ([1]; Cycle 2, desorption, target RH 50%): 3.500%
Change in Mass (%)-ref Desorption ([1]; Cycle 2, desorption, target RH 60%): 3.670%
Change in Mass (%)-ref Desorption ([1]; Cycle 2, desorption, target RH 70%): 3.780%
Change in Mass (%)-ref Desorption ([1]; Cycle 2, desorption, target RH 80%): 3.890%
Change in Mass (%)-ref Desorption ([1]; Cycle 2, desorption, target RH 90%): 4.080%
Change in Mass (%)-ref Sorption ([1]; Cycle 2, sorption, target RH 0%): 0.180%
Change in Mass (%)-ref Sorption ([1]; Cycle 2, sorption, target RH 10%): 2.300%
Change in Mass (%)-ref Sorption ([1]; Cycle 2, sorption, target RH 20%): 2.770%
Change in Mass (%)-ref Sorption ([1]; Cycle 2, sorption, target RH 30%): 3.030%
Change in Mass (%)-ref Sorption ([1]; Cycle 2, sorption, target RH 40%): 3.290%
Change in Mass (%)-ref Sorption ([1]; Cycle 2, sorption, target RH 50%): 3.470%
Change in Mass (%)-ref Sorption ([1]; Cycle 2, sorption, target RH 60%): 3.660%
Change in Mass (%)-ref Sorption ([1]; Cycle 2, sorption, target RH 70%): 3.780%
Change in Mass (%)-ref Sorption ([1]; Cycle 2, sorption, target RH 80%): 3.900%
Change in Mass (%)-ref Sorption ([1]; Cycle 2, sorption, target RH 90%): 4.080%
Change in Mass (%)-ref Sorption ([1]; Cycle 3, sorption, target RH 0%): 0.000%
Change in Mass (%)-ref Sorption ([1]; Cycle 3, sorption, target RH 10%): 2.250%
Change in Mass (%)-ref Sorption ([1]; Cycle 3, sorption, target RH 20%): 2.740%
Change in Mass (%)-ref Sorption ([1]; Cycle 3, sorption, target RH 30%): 3.020%
Change in Mass (%)-ref Sorption ([1]; Cycle 3, sorption, target RH 40%): 3.220%
moisture adsorbed (DVS) ([2]; at 40% RH): 3.00 wt %
moisture adsorbed (DVS) ([2]; at 90% RH): 4.00 wt %
mass increase by DVS ([2]; between 0% and 90% RH): 4%
stability compared to other morphic forms [3]: superior stability
Observations at T = 24 hours ([4]; 30 mg/mL in water at pH 4.2, agitated at ambient temperature ca. 24 hours): Yellow solution
Observations at T = 0 hours ([4]; 30 mg/mL in water at pH 4.2, ambient temperature, T = 0 hours): Yellow slurry
SMILES: CN1CCN(c2ccc(Nc3ncc4cc5n(c4n3)C3(CCCCC3)CNC5=O)nc2)CC1 [Pattern 1, 2′-((5-(4-methylpiperazin-1-yl)pyridin-2-yl)amino)-7′,8′-dihydro-6′H-spiro[cyclohexane-1,9′-pyrazino[1′,2′:1,5]pyrrolo[2,3-d]pyrimidin]-6′-one]
XRPD analysis post-DVS (form stability) ([2]; dried sample at the conclusion of the DVS experiment): confirmed Pattern 1; also recorded: no change

Source: patent US12534472B2, “Morphic forms of trilaciclib and methods of manufacture thereof” (Pharmacosmos Holding A/S, priority 2020, dated 2026)
